The text below walks through data of patent US20250221970A1, “Combinations of a B-RAF Inhibitor and an Anti-EGFR Antibody for the Treatment of Cancer” (MapKure, LLC, priority 2022, published 2025).

As usually defined, the solubility is how much of the substance goes into solution per volume.

Converted amounts (≈) assume the structure as drawn. Some results are limits rather than exact numbers.

The nature of data set [1]: Compound A monotherapy clinical study. In kind it is in vivo, human.
The nature of data set [2]: Hygroscopicity of the solid form (Form F) of Compound A. Format: physicochemical. To be noted: at 80% relative humidity (RH).
The nature of data set [3]: Solid form stability of Form F at long-term and accelerated condition. Format: physicochemical.
The next data set has as its system CYP3A. Kind of data set: In vitro metabolism of Compound A. In kind it is in vitro ADME. The following applies: in vitro data.
A short description of data set [4]: Solubility of the solid form (Form F) of Compound A. Format: physicochemical.

Regarding `O=C1CCc2c(Oc3ccc4c(c3)[C@H]3[C@H](NC(=O)Nc5cc(F)c(F)cc5F)[C@H]3O4)ccnc2N1` [Compound A, 1-((1S,1aS,6bS)-5-((7-oxo-5,6,7,8-tetrahydro-1,8-naphthyridin-4-yl)oxy)-1a,6b-dihydro-1H-cyclopropa[b]benzofuran-1-yl)-3-(2,4,5-trifluorophenyl) urea], the “MTD (maximum tolerated dose)” value in data set [1] (Compound A monotherapy, QD) turned out to be 40 mg. Further, in data set [1] (emerging data from the ongoing Compound A clinical study), the “Increased incidence of ocular AEs” value is “no evidence”. For the same molecule, the “Hygroscopicity (classification)” value in data set [2] is on record as “moderately hygroscopic”. The “Hygroscopicity: moisture absorption” value in data set [2] (actual moisture of 81.5%) was 81.5% and a moisture absorption of about 5.425%; the sample was. Moreover, the “Stability: time Form F is in amorphous form” value was “(25° C./60% RH) as well as for 6 months at accelerated condition (40° C./” in data set [3] (accelerated condition (40° C./75% RH)) and “Form F is in amorphous form for 24 months at long-term condition” in data set [3] (long-term condition (25° C./60% RH)). In the data set with CYP3A, the Main metabolic pathway result is “mainly metabolized by the CYP3A pathway”. The solubility in data set [4] (0.1N HCl, simulated gastric fluid, in 0.1N HCI) was 240 µg/mL (≈ 497 µM); in data set [4] (medium with 0.5% hexadecyl trimethyl ammonium bromide (HTAB), aqueous with cosolvent or surfactant or cyclodextrin, with 0.5% HTAB (hexadecyl trimethyl ammonium bromide)), 310 µg/mL (≈ 643 µM); in data set [4] (medium with 1% sodium lauryl sulphate (SLS), aqueous with cosolvent or surfactant or cyclodextrin, with 1% SLS (sodium lauryl sulphate)) it was 450 µg/mL (≈ 933 µM); in data set [4] (pH 4.5 buffer, pH 4.5, aqueous buffer) it was < 5 µg/mL; in data set [4] (pH 6.8 buffer, pH 6.8, aqueous buffer), < 5 µg/mL.
